According to US9156826B2, “Asymmetrical reversible neuromuscular blocking agents of ultra-short, short, or intermediate duration” (Cornell University, priority 2012, dated 2015):
Entries after “also recorded” stand apart in the source; their conditions may differ. Read-outs that look alike come from different tables or passages of the source. One block for each compound: values may come before it.

What was measured:
[1] = tested on: twitch responses of the extensor digitorum of the foot (peroneal nerve stimulation); experiment: Spontaneous recovery versus reversal of neuromuscular blockade by cysteine in monkeys; assay type: in vivo, rhesus monkey (Macaca mulatta); settings: for Reversibility (Cysteine): Table 1, reversal of the blockade by cysteine; for Total Duration (Spontaneous Recovery): injection to 95% twitch height
Method: (§1) Selected NMBA compounds were tested as described in PCT/US2010/000796 application by an inventor herein, published as WO2010/107488, which is incorporated by reference, see pages 66-78. Dose-response curves for twitch blockade by test compounds were generated as described. […] Successive doses were separated by at least three estimated half lives beyond complete recovery of the previous dose to TOF of 110-120%, which is normal for these monkeys. Only the first one or two doses yielding 5 to 99% blockade were included from any single experiment for computation of dose-response data. Comparative studies of spontaneous recovery versus antagonism/reversal were done at least 3 estimated half-lives following dose-response studies. ED50 and ED95 were computed from the regression of log dose vs. the logit of percentage blockade of twitch.
(§2) On the day of each study, monkeys received ketamine (7-10 mg/kg i.m.) followed by tracheal intubation under topical anesthesia with 4% lidocaine. Ventilation was controlled at 10 mL/kg and 20 breaths/min with isoflurane (1.0-2.0%) and N2O/O2 (2:1 mixture). Ringers lactate was administered at ˜10 ml kg^−1 h^−1. Arterial pressure was monitored from a femoral, superficial tibial, or radial (22 gauge) cannula. Heart rate was measured by tachograph from the arterial pulse wave. Core temperature was kept at 36.5-38.0° C. by warming blankets. Electrocardiogram and pulse oximetry were monitored continuously.
(§3) Needle electrodes (25 gauge) transmitting square-wave pulses of 0.2 msec duration at supramaximal voltage which were generated by a Grass S-88 stimulator (Grass Instruments, Quincy, Mass.) were placed at the peroneal nerve at the knee to elicit twitch responses of the extensor digitorum of the foot at 0.15 Hz. A small slip (10-20%) of the tendon was dissected free under sterile technique and tied to a Grass FT 10 force transducer (Grass Instruments, Quincy, Mass.) at a baseline tension of 50 gm. Train-of four stimulation (TOF, 2 Hz for 2 sec) was interposed at appropriate points, especially 1-2 min prior to NMBA dosing and following recovery of twitch to 95% of baseline, where TOF was subsequently evaluated every 1-2 min.
Comparative studies of spontaneous recovery versus antagonism/reversal were done at least 3 estimated half-lives following dose-response studies.

[2] = tested on: twitch responses of the extensor digitorum of the foot (peroneal nerve stimulation); experiment: Neuromuscular blocking potency and duration: twitch blockade dose-response in anesthetized rhesus monkeys; assay type: in vivo, rhesus monkey (Macaca mulatta); settings: for ED95: Macaca mulatta; for Duration (min ± SD): at the actual dose administered, injection to recovery of twitch to 95% of control; for Blockade (%) / Onset / Total Duration: Table 3, dose 0.064 ± 0.010 (gantacurium) or 0.060 ± 0.012 mg/kg (CW1759-50)
Method: as §1
Experiments were approved by the Institutional Animal Care and Use Committee of Weill Medical College of Cornell University (New York, N.Y.) and of Albany Medical College (Albany, N.Y.), where the studies were conducted. A colony of 10 adult male monkeys (Macaca mulatta) weighing 8-18 kg was studied at ˜6 week intervals. Animals were housed and cared for in accordance with the Guide for Care and Use of Laboratory Animals (National Research Council, Washington, D.C.). They were fed a standard Old World monkey diet, enriched with fruits and vegetables, and other dietary novelties and were followed throughout the study to verify normal health by physical examination, body weight, and clinical laboratory studies (Complete Blood Count, Blood Urea Nitrogen and creatinine, and liver function tests).
as §2, §3
(§4) Recordings of circulatory and neuromuscular data were made on a Grass 7B polygraph (Grass Instruments). A baseline period of 15-20 min was allowed for stabilization of recordings prior to dosing.^2
Dose-response curves for twitch blockade by gantacurium, CW 002, CW 011, cisatracurium, CW002-Cys, NB 938-69, NB 1064-81, NB 802-17 (CW 001), NB 832-65, and NB 1163-79, structures of which are all shown above, were generated as follows. […] Successive doses were separated by at least three estimated half lives beyond complete recovery of the previous dose to TOF of 110-120%, which is normal for these monkeys. Only the first one or two doses yielding 5 to 99% blockade were included from any single experiment for computation of dose-response data.
ED 50 and ED 95 were computed from the regression of log dose vs. the logit of percentage blockade of twitch.

[3] = tested on: blood pressure and heart rate; experiment: Circulatory effects (arterial pressure, heart rate) during neuromuscular blockade in rhesus monkeys; assay type: in vivo, rhesus monkey (Macaca mulatta); settings: rhesus monkey
Method: Thus, the undesired side effect of tachycardia is not induced by a compound of the invention at a dose effective to induce NMB.
as §2, §4

[4] = Properties of cysteine solutions (solubility, natural pH); assay type: physicochemical; settings: cysteine in its base form
Method: To accomplish the reversal of a neuromuscular blockade generated by one of these agents, cysteine is administered by intravenous injection. However, the natural pH of cysteine hydrochloride solutions at concentrations of 50 mg/ml or more in aqueous solution (e.g., 0.9% saline) is very low, ranging from about pH 0.8 to about pH 1.0. Moreover, cysteine is not soluble at concentrations greater than 50 mg/ml in its base form, but higher concentrations of cysteine are more conveniently administered for reversal of neuromuscular blockades. For example, bolus administration of volumes greater than 50 ml over a time period of 5-10 sec is generally not convenient in an operating room. Therefore, to be administered to patients, cysteine solutions have been developed that have higher concentrations and higher pH values as described herein.

[5] = Table 1, calculated dose for 95% block of twitch, monkeys, read-out: ED 95

Structure (SMILES): COc1cc2c(cc1OC)[C@@H](Cc1cc(OC)c(OC)c(OC)c1)[N@+](C)(CCCOC(=O)/C(Cl)=C/C(=O)OCCC[N+]1(Cc3cc(OC)c(OC)c(OC)c3)CCCC1)CC2 [Compound 1326-69]
Reversibility (Cysteine) [1]: Yes
ED95 [2, 5]: 0.11 mg/kg
Duration (min ± SD) ([2]; Table 1): 4.5 ± 1.8 min

Structure (SMILES): COc1cc2c(cc1OC)[C@@H](Cc1cc(OC)c(OC)c(OC)c1)[N@+](C)(CCCOC(=O)/C(Cl)=C/C(=O)OCCC[N+]1(Cc3cc(OC)c(OC)c(OC)c3)CCCCC1)CC2 [Compound 1343-05]
Reversibility (Cysteine) [1]: Yes
ED95 [2]: 0.07 mg/kg
Duration (min ± SD) ([2]; Table 1): 6.7 ± 2.1 min

Structure (SMILES): COc1ccc(C[C@@H]2c3cc(OC)c(OC)cc3CC[N@@+]2(C)CCCOC(=O)/C=C\C(=O)OCCC[N+]2(Cc3cc(OC)c(OC)c(OC)c3)CCCC2)cc1OC [Compound 1343-13]
Reversibility (Cysteine) [1]: Yes
ED95 [2]: 0.06 mg/kg
Duration (min ± SD) ([2]; Table 1): 8.8 ± 2.6 min

Structure (SMILES): COc1ccc(C[C@@H]2c3cc(OC)c(OC)cc3CC[N@@+]2(C)CCCOC(=O)/C=C\C(=O)OCCC[N+]2(Cc3ccc(OC)c(OC)c3)CCCC2)cc1OC [Compound 1390-80]
Reversibility (Cysteine) [1]: Yes
ED95 [2, 5]: 0.07 mg/kg
Duration (min ± SD) ([2]; Table 1): 9.0 ± 2.1 min

Structure (SMILES): COc1ccc(C[C@@H]2c3cc(OC)c(OC)cc3CC[N@@+]2(C)CCCOC(=O)/C=C\C(=O)OCCC[N+]2(Cc3ccc(OC)c(OC)c3OC)CCCC2)cc1OC [Compound 1449-35]
Reversibility (Cysteine) [1]: Yes
ED95 [2]: 0.126 mg/kg
Duration (min ± SD) ([2]; Table 1): 5 min

Structure (SMILES): COc1ccc(C[N+]2(CCCOC(=O)/C=C\C(=O)OCCC[N@+]3(C)CCc4cc(OC)c(OC)cc4[C@H]3Cc3ccc(OC)c(OC)c3)CCCC2)cc1 [Compound 1521-28]
Reversibility (Cysteine) [1]: Yes
ED95 [2]: 0.335 mg/kg
Duration (min ± SD) ([2]; Table 1): 6.5 min

Structure (SMILES): COc1ccc(C[C@@H]2c3cc(OC)c(OC)cc3CC[N@@+]2(C)CCCOC(=O)/C(Cl)=C/C(=O)OCCC[N+]2(Cc3ccc(OC)c(OC)c3)CCOCC2)cc1OC [Compound 1521-74]
Reversibility (Cysteine) [1]: Yes
ED95 [2]: 0.16 mg/kg
Duration (min ± SD) ([2]; Table 1): 4.3 ± 1.1 min

Structure (SMILES): COc1ccc(C[C@@H]2c3cc(OC)c(OC)cc3CC[N@@+]2(C)CCCOC(=O)/C=C\C(=O)OCCC[N+]2(Cc3ccc4c(c3)OCCO4)CCOCC2)cc1OC [Compound 1521-78]
Reversibility (Cysteine) [1]: Yes
ED95 [2]: 0.05 mg/kg
Duration (min ± SD) ([2]; Table 1): 12.1 ± 2.1 min

Structure (SMILES): COc1ccc(C[N+]2(CCCOC(=O)/C=C(\Cl)C(=O)OCCC[N@+]3(C)CCc4cc(OC)c(OC)cc4[C@H]3Cc3cc(OC)c(OC)c(OC)c3)CCOCC2)cc1OC [Compound 1566-01]
Reversibility (Cysteine) [1]: Yes
ED95 [2]: 0.61 mg/kg
Duration (min ± SD) ([2]; Table 1): 8 min

Structure (SMILES): COc1ccc(C[C@@H]2c3cc(OC)c(OC)cc3CC[N@@+]2(C)CCCOC(=O)/C(Cl)=C/C(=O)OCCC[N+]2(Cc3cc(OC)c(OC)c(OC)c3)CCOCC2)cc1OC [Compound 1566-22]
Reversibility (Cysteine) [1]: Yes
ED95 [2]: 0.19 mg/kg
Duration (min ± SD) ([2]; Table 1): 3.7 ± 0.3 min

Structure (SMILES): COc1cc2c(cc1OC)[C@@H](Cc1cc(OC)c(OC)c(OC)c1)[N@+](C)(CCCOC(=O)/C(Cl)=C/C(=O)OCCC[N+]1(Cc3ccc4c(c3)OCCO4)CCOCC1)CC2 [Compound 1598-46]
Reversibility (Cysteine) [1]: Yes
ED95 [2]: 0.1 mg/kg
Duration (min ± SD) ([2]; Table 1): 6.8 ± 2.3 min

Structure (SMILES): COc1ccc(C[C@@H]2c3cc(OC)c(OC)cc3CC[N@@+]2(C)CCCOC(=O)/C=C\C(=O)OCCC[N+]2(Cc3ccc(OC)cc3)CCOCC2)cc1 [Compound 1625-05]
Reversibility (Cysteine) [1]: Yes
ED95 [2]: 0.09 mg/kg
Duration (min ± SD) ([2]; Table 1): 6 min

Structure (SMILES): COc1ccc(C[C@@H]2c3cc(OC)c(OC)cc3CC[N@@+]2(C)CCCOC(=O)/C=C\C(=O)OCCC[N+]2(Cc3ccc(OC)c(OC)c3)CCOCC2)cc1 [Compound 1726-01]
spontaneous reversal of blockade time (FIG. 4) ([1]; 100% block): more than 10 minutes
cysteine-induced reversal time (FIG. 4) ([1]; 100% block, 30 mg/kg L-cysteine hydrochloride): ≤ 2 min
5-95% Interval with L-Cysteine ([1]; L-cysteine 30 mg/kg at +1 min following bolus 0.2 mg/kg (4x ED95), Point A): 1.9 ± 0.2
5-95% Interval with L-Cysteine ([1]; L-cysteine 30 mg/kg at +1 min following discontinuation of infusion (30-120 mins), Point B): 2.1 ± 0.2
Reversibility (Cysteine) [1]: Yes
5-95% Interval (Spontaneous Recovery) ([1]; bolus 0.2 mg/kg (4x ED95), Point A): 6.2 ± 0.2
Total Duration (Spontaneous Recovery) ([1]; bolus 0.2 mg/kg (4x ED95)): 11.9 ± 0.3 min
5-95% Interval (Spontaneous Recovery) ([1]; bolus 0.05-0.06 mg/kg (ED99)): 5.2 ± 0.2
Total Duration (Spontaneous Recovery) ([1]; bolus 0.05-0.06 mg/kg (ED99)): 7.3 ± 0.3 min
dependence of recovery (5-95% twitch recovery interval) on dosage or duration of infusion (FIG. 5) ([1]; bolus or infusion, spontaneous or L-cysteine induced recovery, listed as 1759-50): not significantly effected by the previous duration of infusion; also recorded: unaffected by dosage or duration of infusion
5-95% Interval (Spontaneous Recovery) ([1]; continuous infusions, 30-120 mins, Point B): 5.2 ± 0.3
spontaneous reversal time (FIG. 3) ([1]; dose of 4x the ED95 dose): about 11 minutes
time to termination of blockade following L-cysteine administration (FIG. 3) ([1]; dose of 4x the ED95 dose, 30 mg/kg L-cysteine hydrochloride): about two
duration of neuromuscular blockade (spontaneous recovery, FIG. 2) ([2]; 0.06 mg/kg dose, rhesus monkey): about six
ED95 [2, 5]: 0.05 mg/kg
Duration (min ± SD) ([2]; Table 1): 7.6 ± 2.4 min
Blockade (%) [2]: 99.3 ± 0.2%
Onset [2]: 94.0 ± 8.7 s
Total Duration [2]: 8.2 ± 1.5 min
potency compared with gantacurium (% blockade, time to onset, total duration of effect) ([2]; Table 3 comparison): comparable to gantacurium in potency
ED95 (statistical analysis of dose-response study, FIG. 1) ([2]; rhesus monkeys): 0.054 ± 0.0022 mg/kg
effect on blood pressure ([3]; 0.06 mg/kg dose, FIG. 2): no apparent effect on blood pressure
effect on heart rate / tachycardia ([3]; 0.06 mg/kg, dose effective to induce NMB): no apparent effect on heart rate

Structure (SMILES): COc1ccc(C[C@@H]2c3cc(OC)c(OC)cc3CC[N@@+]2(C)CCCOC(=O)/C=C\C(=O)OCCC[N+]2(Cc3cc(OC)c(OC)c(OC)c3)CCOCC2)cc1 [Compound 1759-58]
Reversibility (Cysteine) [1]: Yes
ED95 [2]: 0.064 mg/kg
Duration (min ± SD) ([2]; Table 1): 6 to 8 min

Structure (SMILES): COc1ccc2c(c1)CC[N@@+](C)(CCCOC(=O)/C=C\C(=O)OCCC[N+]1(Cc3ccc(OC)c(OC)c3)CCOCC1)[C@@H]2Cc1ccc(OC)c(OC)c1 [Compound 1759-85]
Reversibility (Cysteine) [1]: Yes
ED95 [2, 5]: 0.22 mg/kg
Duration (min ± SD) ([2]; Table 1): 5.4 ± 1.3 min

Structure (SMILES): COc1cc2c(cc1OC)[C@H](c1cc(OC)c(OC)c(OC)c1)[N@@+](C)(CCCOC(=O)/C=C(\Cl)C(=O)OCCC[N@+]1(C)CCc3cc(OC)c(OC)cc3[C@H]1Cc1cc(OC)c(OC)c(OC)c1)CC2 [Gantacurium, gantacurium, reference compound]
Blockade (%) [2]: 99.2 ± 0.5%
Onset [2]: 97.1 ± 11.7 s
Total Duration [2]: 7.4 ± 1.9 min
ED95 in a control study ([2]; rhesus monkeys, control study for comparison): 0.063 ± 0.0021 mg·kg

solubility [4]: ≤ 50 mg/mL
Structure (SMILES): N[C@@H](CS)C(=O)O [cysteine]
